Reference: US9661855B2, “Cyclic aza-sila compounds as insect repellants” (COUNCIL OF SCIENTIFIC & INDUSTRIAL RESEARCH, priority 2012, dated 2017)
Like-named read-outs stand apart in the source and are kept apart here.

Key:
[1] = test system: Ae. aegypti females mosquitoes; experiment: Mosquito repellence test, protection period (time until the first bite), treated muslin screen over human volunteer's hand; format: in vivo; settings: 27±1° C.; for Protection period in hrs @ 0.25 mg/cm^2: 0.25 mg/cm^2 on muslin cloth screen; for Protection period in hrs @ 0.50 mg/cm^2: 0.50 mg/cm^2 on muslin cloth screen
Protocol: Mosquito repellence activity was assessed on the basis of protection period (hr) offered by various analogues of DEET against Mosquito bites. The protection period was measured on the basis of the concept” time until the first bite” pioneered by Granette (Comparison of mosquito repellence test under laboratory and field conditions. Granett, P. Proc Ann Meet NJ Mosq Assoc, 1938, vol. 25, 51). Repellence tests were carried out against 3-5 days old, blood starved but sucrose fed (0.5M solution), Ae. aegypti females mosquitoes, drawn from well-established laboratory colony maintained at 27±1° C. Temperature and 70±5% Relative humidity. The light intensity was regulated at 300-500 lux for testing against laboratory, colonized Ae. aegypti, a day biting mosquito. Human volunteer's hand covered with polythene disposable gloves was introduced in the cage containing about 200 hungry mosquitoes. Mosquitoes were allowed to bite on the back of the hand through muslin screen stuck over a small window (2 cm×2 cm) cut out in the polythene bag. Various analogues of DEET were loaded on the muslin cloth screen instead of direct skin application so as to avoid the potential risk involved in the evaluation of natural products of unknown mammalian toxicity. All the test solutions were made in Analar grade Acetone The muslin cloth screen was first treated with the analogue taking two doses @0.25 mg/cm2 and 0.5 mg/cm2 and the solvent was evaporated before use. Control muslin screen was treated with solvent alone. After introduction of the hand covered with the polythene glove with the treated muslin screen into the mosquito cage, number of mosquito bites received in subsequent 5 minutes was counted. In the event of no bites in the initial 5 minutes exposure, the test hand was exposed repeatedly after every consecutive ½ hr for 5 minutes test till the time a confirmed bite was received. Number of hours before the receipt of a confirmed bite (Techniques for the evaluation of insect repellents. A critical review (Schreck, C. E, Ann Rev Entomol, 1977, vol 22, 101) represented the protection period offered by the test compound. In control rate of mosquito bite was 10-12 bites/min. All the tests were carried out at 27±1° C. temperature between 9.00-17.00 hrs.

insect bites = settings: cited from earlier work
Aedesaegypti (L.) = settings: against Aedesaegypti (L.); topical, human volunteers; cited from earlier work
[2] = test system: Anopheles stephensi Liston; settings: against Anopheles stephensi Liston; topical, human volunteers; cited from earlier work

| SMILES | melting point | Protection period in hrs @ 0.25 mg/cm^2 [1] | Protection period in hrs @ 0.50 mg/cm^2 [1] | also measured |
| --- | --- | --- | --- | --- |
| Cc1cccc(C(=O)N2CC[Si](C)(C)CC2)c1 | 65 to 68 °C |  |  |  |
| C[Si]1(C)CCN(C(=O)c2ccccc2)CC1 | 65 to 67 °C |  |  |  |
| C[Si]1(C)CCN(C(=O)c2cc(Cl)ccc2Cl)CC1 | 79 to 81 °C |  |  |  |
| C[Si]1(C)CCN(C(=O)c2ccccn2)CC1 | 101 to 103 °C |  |  |  |
| C[Si]1(C)CCN(C(=O)c2cnccn2)CC1 |  | 2.14 ± 0.76 h | 4.22 ± 0.69 h |  |
| CCCCCCCCCCC(=O)N1CC[Si](C)(C)CC1 |  | 2.14 ± 0.065 h | 5.05 ± 0.207 h |  |
| Cc1ccccc1C(=O)N1CC[Si](C)(C)CC1 |  | 4.09 ± 0.053 h | 5.41 ± 0.135 h |  |
| Cc1ccc(C(=O)N2CC[Si](C)(C)CC2)cc1 |  | 3.08 ± 0.056 h | 4.16 ± 0.067 h |  |
| CCN(CC)C(=O)c1cccc(C)c1 [DEET, N,N-Diethyl-meta-toluamide] |  |  |  | hours of protection (insect bites; 100% DEET): up to 12 hours; hours of protection (insect bites; lower concentrations of 20%-40% DEET): 3 to 8 h |
| CCN(CC)C(=O)c1cccc(C(F)(F)F)c1 [N,N,diethyl[3-(trifluoromethyl)]benzamide] |  |  |  | biting-deterrent activities compared with DEET (Aedesaegypti (L.)): superior to DEET; biting-deterrent activities compared with DEET [2]: superior to DEET |
| CCN(CC)C(=O)Cc1cccc(Br)c1 [N,N-diethyl(3-bromophenyl) acetamide] |  |  |  | biting-deterrent activities compared with DEET (Aedesaegypti (L.)): superior to DEET; biting-deterrent activities compared with DEET [2]: superior to DEET |
| CCN(CC)C(=O)Cc1cccc(C(F)(F)F)c1 [N,N-diethyl[(alpha,alpha,alpha-trifluoro-m-tolyl)]acetamide] |  |  |  | biting-deterrent activities compared with DEET (Aedesaegypti (L.)): superior to DEET; biting-deterrent activities compared with DEET [2]: superior to DEET |
| Cc1cccc(C(=O)N2CC[Si](C)(C)CC2)c1 [drawing 33] |  | 1.47 ± 0.13 h | 2.15 ± 0.072 h |  |
